# Patent US20060069132A1, “Azolecarboxamide herbicides” (priority 2004, published 2006)
# Experiments:
# wheat cv. Recital = test: Test I safening of Compound 6 by Harmony Extra Herbicide, pre-/postemergence; assay type: in vivo, Triticum aestivum
# Procedure: This test evaluated the safening of Compound 6 on barley (Hordeum vulgare L.) cv. ‘Boone’ and wheat (Triticum aestivum L.) cv. ‘Recital’ by Harmony® Extra Herbicide, which comprises 50 wt % thifensulfuron-methyl and 25 wt % tribenuron-methyl. Barley and wheat seeds were planted in pots containing a pasteurized blend of Matapeake soil and sand. For postemergence testing the plants were grown 10 days so the barley seedlings were at the 2-leaf stage and the wheat seedlings were at the 2-3-leaf stage at time of treatment. Preemergence treatments were applied the day after the seeds were planted. Treatments were applied by spraying Compound 6 and/or […] in a non-phytotoxic solvent mixture, using flat fan nozzle and a spray volume of 280 L/ha. The treatments were triply replicated and the results subsequently averaged. The pots were placed on a greenhouse bench using a complete randomized block design except for the first replicate, which was unrandomized. The plants were grown in the greenhouse and watered as needed with a dilute nutrient solution containing 200 ppm of N. Illumination was daylight supplemented by artificial sources to maintain a photoperiod of 14 hours. The temperature was maintained at 23±2° C. during the day and 17±2° C. at night. The effects of the treatments were rated 25 days after preemergence treatment and 15 days after postemergence treatment. The plant response was visually rated in comparison to untreated controls using a scale of 0 to 100, with 0 representing no effect and 100 representing complete plant death.
# Colby's Equation was used to calculate the expected additive herbicidal effect of the mixtures of Compound 6 with Harmony® Extra (i.e. a 2:1 mixture by weight of thifensulfuron-methyl and tribenuron-methyl). Colby's Equation (Colby, S. R. “Calculating Synergistic and Antagonistic Responses of Herbicide Combinations,” Weeds, 15(1), pp 20-22 (1967)) calculates the expected additive effect of herbicidal mixtures, and for two active ingredients is of the form: Pa+b=Pa+Pb−(PaPb/100) wherein • Pa+b is the percentage effect of the mixture expected from additive contribution of the individual components, • Pa is the observed percentage effect of the first active ingredient at the same use rate as in the mixture, and • Pb is the observed percentage effect of the second active ingredient at the same use rate as in the mixture.
# The results and additive effects expected from Colby's Equation for the preemergence test are listed in Table I1, and the results and additive effects expected from Colby's Equation for the postemergence test are listed in Table I2.
# large crabgrass (DIGSA) = test: Test J Compounds 2 and 6 alone and in combination with other herbicides, foliage spray; assay type: in vivo, Digitaria sanguinalis; set-up: key: 0 = no effect, 100 = complete control; conditions: applied alone
# From the text: Colby's Equation was used to calculate the expected additive herbicidal effect of the mixtures of Compound 6 with Harmony® Extra (i.e. a 2:1 mixture by weight of thifensulfuron-methyl and tribenuron-methyl). […]
# Seeds of test plants consisting of barnyardgrass (ECHCG; Echinochloa crus-galli (L.) Beauv.), blackgrass (ALOMY; Alopecurus myosuroides Huds.), Surinam grass (BRADC; Urochloa decumbens (Staph) R. D. Webster, previously named Brachiaria decumbens Stapf), cocklebur (XANST, Xanthium strumarium L.), corn (ZEAMD, Zea mays L. cv. ‘Pioneer 33G26’), large crabgrass (DIGSA, Digitaria sanguinalis (L.) Scop.), giant foxtail (SETFA, Setaria faberi Herrm.), lambsquarters (CHEAL, Chenopodium album L.), morningglory (IPOCO, Ipomoea coccinea L.), pigweed (AMARE, Amaranthus retroflexus L.), velvetleaf (ABUTH, Abutilon theophrasti Medik.) wheat (TRZAS, Triticum aestivum L. cv. ‘Recital’) and wild oat (AVEFA, Avena fatua L.) were planted in Redi-Earth® planting medium (Scotts Company, 14111 Scottslawn Road, Marysville, Ohio 43041) comprising spaghnum peat moss and vermiculite. […] Also listed in Table J are the expected effects for the mixtures calculated using Colby's Equation.
# winter barley = test: Test F pre-/postemergence herbicide test; assay type: in vivo, Hordeum vulgare
# From the text: (§1) Seeds of plant species selected from annual blugrass (Poa annua L.), blackgrass (Alopecurus myosuroides Huds.), catchweed bedstraw (Gallium aparine L.), common chickweed (Stellaria media (L.) Vill./Cyr.), downy bromegrass (Bromus tectorum L.), green foxtail (Setaria viridis (L.) Beauv.), Italian ryegrass (Lolium multiflorum Lam.), kochia (Kochia scoparia (L.). Schrad.), lambsquarters (Chenopodium album L.), littleseed canarygrass (Phalaris minor Retz.), pigweed (Amaranthus retroflexus L.), Russian thistle (Salsola kali L. ssp. Ruthenica (Iljin) Soo), wild buckwheat (Polygonum convolvulus L.), wild mustard (Sinapis arvensis L.), wild oat (Avena fatua L.), windgrass (Apera spica-venti (L.) Beauv.), winter barley (Hordeum vulgare L.), and wheat (Triticum aestivum L.) were planted and treated preemergence with test chemicals formulated in a non-phytotoxic solvent mixture which included a surfactant.
# (§2) At the same time, plants selected from these crop and weed species were treated with postemergence applications of some of the test chemicals formulated in the same manner. Plants ranged in height from 2 to 18 cm (1- to 4-leaf stage) for postemergence treatments. Treated plants and controls were maintained in a greenhouse for 12 to 14 days, after which time all species were compared to controls and visually evaluated. Plant response ratings, summarized in Table F, are based on a scale of 0 to 100 where 0 is no effect and 100 is complete control. A dash (-) response means no test result.
# windgrass = test: Test F pre-/postemergence herbicide test; assay type: in vivo, Apera spica-venti
# From the text: as §1, §2
smiles,measurement,setting,value
"CCn1nc(C(C)(C)C)cc1C(=O)Nc1cc(C(=O)N(C)C)ccc1F [Compound 6, N-[5-[(dimethylamino)carbonyl]-2-fluorophenyl]-3-(1,1-dimethylethyl)-1-ethyl-1H-pyrazole-5-carboxamide]",Wheat Observed effect,"wheat cv. Recital; postemergence, Compound 6 16, thifensulfuron-methyl 0, tribenuron-methyl 0 g a.i./ha",58
same,Wheat Observed effect,"wheat cv. Recital; postemergence, Compound 6 31, thifensulfuron-methyl 0, tribenuron-methyl 0 g a.i./ha",65
same,Wheat Observed effect,"wheat cv. Recital; preemergence, Compound 6 16, thifensulfuron-methyl 0, tribenuron-methyl 0 g a.i./ha",45
same,Wheat Observed effect,"wheat cv. Recital; preemergence, Compound 6 31, thifensulfuron-methyl 0, tribenuron-methyl 0 g a.i./ha",67
same,DIGSA Obsd.,large crabgrass (DIGSA); 62 g a.i./ha,8
same,DIGSA Obsd.,large crabgrass (DIGSA); 125 g a.i./ha,13
CCn1nc(C(C)(C)C)cc1C(=O)Nc1cc(C(=O)OC(C)C)c(F)cc1F [Compound 248],"Plant response rating (0-100), Barley, Winter","winter barley; Postemergence, 31 g ai/ha",25
same,"Plant response rating (0-100), Barley, Winter","winter barley; Postemergence, 62 g ai/ha",30
same,"Plant response rating (0-100), Barley, Winter","winter barley; Postemergence, 125 g ai/ha",30
same,"Plant response rating (0-100), Barley, Winter","winter barley; Postemergence, 250 g ai/ha",40
same,"Plant response rating (0-100), Barley, Winter","winter barley; Preemergence, 31 g ai/ha",0
same,"Plant response rating (0-100), Barley, Winter","winter barley; Preemergence, 62 g ai/ha",0
same,"Plant response rating (0-100), Barley, Winter","winter barley; Preemergence, 125 g ai/ha",0
same,"Plant response rating (0-100), Barley, Winter","winter barley; Preemergence, 250 g ai/ha",35
same,"Plant response rating (0-100), Windgrass","windgrass; Postemergence, 31 g ai/ha",50
same,"Plant response rating (0-100), Windgrass","windgrass; Postemergence, 62 g ai/ha",50
same,"Plant response rating (0-100), Windgrass","windgrass; Postemergence, 125 g ai/ha",50
same,"Plant response rating (0-100), Windgrass","windgrass; Postemergence, 250 g ai/ha",50
same,"Plant response rating (0-100), Windgrass","windgrass; Preemergence, 31 g ai/ha",70
same,"Plant response rating (0-100), Windgrass","windgrass; Preemergence, 62 g ai/ha",70
same,"Plant response rating (0-100), Windgrass","windgrass; Preemergence, 125 g ai/ha",100
same,"Plant response rating (0-100), Windgrass","windgrass; Preemergence, 250 g ai/ha",100
